Where two headings read alike, the source gives them in different places.
Experiments:
[1] = cited from earlier work; for concentrations ensuring good antioxidative activity in vitro: in vitro (Atanasiu et al., 1998)
isolated rat hearts = settings: isolated rat heart, blood-free model (Chahine et al., 1991; Atanasiu et al, 1995), cited from earlier work
[2] = system: ischemic isolated rat heart; experiment: Reperfusion-induced irreversible ventricular fibrillation in isolated rat heart submitted to partial ischemia-reperfusion (Langendorff); settings: TRIAD (S2) 0.16×, CP 0.5 μM
Procedure: All experiments were conformed to rules of the Guide for the care and use of laboratory animals published by the US National Institutes of Health (NIH publication No 85-23, revised 1985). Adult male Wistar rats (225-250 g) were anaesthetized with sodium pentobarbitone intra-peritoneally (0.1 ml/100 g body weight) and then heparinized (500 UI intra-peritoneally). […]
Hearts were perfused for a 10 min control period with KH buffer, and then […] with KH+TRIAD for stabilization. […] At the end of this 10 min arterial occlusion period, reperfusion was initiated by cutting the ligature with a scalpel bled and rhythm disturbances were monitored for 15 min more. Left ventricular pressure and epicardial ECG were continuously monitored before and during ischemia and reperfusion. […]
Rat hearts were first perfused for 10 min with KH buffer and then for another 10 min with the same buffer containing TRIAD (S2) prepared as described above (section 2.2), until equilibration of cardiodynamic variables was achieved. […] Left ventricular pressure and epicardial ECG were continuously monitored before and during ischemia and reperfusion. […]
Arrhythmia were defined according to the Lambeth convention (Walker et al., 1988). ECG recordings were analyzed for the incidence of irreversible ventricular fibrillation (IVF) and for the time of normal sinus. […]

[3] = conditions without oxidative stress (Atanasiu et al, 1996); cited from earlier work

Substance | concentrations ensuring good antioxidative activity in vitro [1] | scavenging capacity compared with other antioxidants ([1]; in vitro, β-phycocyanin indicator) | cardioprotective concentrations (isolated rat hearts) | cardiotoxic concentration (isolated rat hearts) | cardiotoxic concentration (isolated rat hearts; listed as Ceruloplasmin) | incidence of reperfusion-induced irreversible ventricular fibrillation (IVF) ([2]; isolated rat heart, 10 min regional ischemia then reperfusion, control 100%) | cardioprotection ([2]; reduction of IVF incidence versus control (100%)) | electrophysiological effect [3]
Albumin [reference compound] | 260 µM | – | – | – | – | – | – | –
Ceruloplasmin [CP] | 2 to 15 µM | better scavenging capacity than SOD and than deferoxamine | up to 2 μM | ≥ 4 µM | 4 µM | 75% | 25% | prolongation of Effective Refractory Period (ERP) and of the action potential (AP)

Source: US20030166511A1, “Cardioprotective composition comprising ceruloplasmin and uses thereof” (GESTILAB INC., priority 1999, published 2003)
